≈ marks a conversion by molar mass, not a printed value.
Key:
Assay type in all cases: functional
[1] = tested on: Mycobacterium tuberculosis; experiment: Antitubercular activity against Multi-drug resistant Mycobacterium tuberculosis assessed as inhibition of bacterial growth incubated for 14 days by broth microdilution method; conditions: 336 h, time 14 day
[2] = tested on: Mycobacterium tuberculosis; experiment: Antimycobacterial activity against extensively drug resistant Mycobacterium tuberculosis assessed as reduction in microbial growth
[3] = tested on: Mycobacterium tuberculosis; experiment: Antibacterial activity against fluoroquinolone-resistant Mycobacterium tuberculosis H37Rv assessed as reduction in bacterial growth measured after 16 to 18 hrs by serial dilution method; conditions: time 16-18 hrs

Structure (SMILES) | MIC50 [2] | also measured
COc1ncccc1Nc1cc2nc3ccccc3n(-c3ccc(OC(F)(F)F)cc3)c-2c/c1=N\C1CCC(OC)CC1 (stereo not drawn) | – | MIC50 [1]: 0.06 µg/mL (≈ 0.102 µM)
CCOc1ccc(Br)c2c1B(O)O[C@@H]2CN | 0.4 µg/mL | –
Cl.NC[C@H]1OB(O)c2c(OCCO)ccc(Cl)c21 | 0.023 µg/mL | –
COc1ccc(Cl)c2c1B(O)O[C@@H]2CN | 0.1 µg/mL | –
CCCCOc1ccc(Cl)c2c1B(O)O[C@@H]2CN | 0.6 µg/mL | –
COc1ccc(Br)c2c1B(O)O[C@@H]2CN | 0.1 µg/mL | –
NCC1OB(O)c2c(Oc3ccccc3)ccc(Cl)c21 (stereo not drawn) | 5 µg/mL | –
NC[C@@H]1OB(O)c2c(OCCO)ccc(Cl)c21 | 5 µg/mL | –
CCCOc1ccc(Br)c2c1B(O)O[C@@H]2CN | 0.38 µg/mL | –
NCC1OB(O)c2c(OCc3ccccc3)ccc(Cl)c21 (stereo not drawn) | 5 µg/mL | –
CCOc1ccc(Cl)c2c1B(O)O[C@@H]2CN | 0.3 µg/mL | –
NC[C@H]1OB(O)c2c(OCCO)ccc(Br)c21 | 0.08 µg/mL | –
CCCOc1ccc(Cl)c2c1B(O)O[C@@H]2CN | 0.16 µg/mL | –
NCC1OB(O)c2c(OCCc3ccccc3)ccc(Cl)c21 (stereo not drawn) | 5 µg/mL | –
CCCCOc1ccc(Br)c2c1B(O)O[C@@H]2CN | 0.45 µg/mL | –
NC[C@@H]1OB(O)c2c(OCCO)ccc(Br)c21 | 10 µg/mL | –
CC(C)/N=c1\cc2n(-c3ccc(Cl)cc3)c3ccccc3nc-2cc1Nc1ccc(Cl)cc1 [CLOFAZIMINE] | – | MIC50 [1]: 0.12 µg/mL (≈ 0.253 µM)
COc1c(N2CCNC(C)C2)c(F)cc2c(=O)c(C(=O)O)cn(C3CC3)c12 (stereo not drawn) [GATIFLOXACIN] | – | MIC90 [3]: 0.06 µg/mL (≈ 0.16 µM)
